Assay results published in US12421220B2, “Bicyclic-substituted glutarimide cereblon binders” (C4 THERAPEUTICS, INC., priority 2022, dated 2025).
Read-outs that look alike come from different tables or passages of the source.

How the values were obtained:
CRBN-DDB1 (CRBN_DDB1.7) = CRBN-DDB1 (CRBN_DDB1.7) (Homo sapiens, UniProt Q96SW2); experiment: Fluorescence polarization (FP) binding assay, CRBN_DDB1.7 construct; details: 0.05% PA, 0.1% BSA
Procedure: (§1) Example 2: Fluorescence Polarization (FP) Assay for Screening Compound Ligand Binders of CRBN-DDB1
(§2) Measuring compound ligand binding to CRBN-DDB 1 was carried out using an established sensitive and quantitative in vitro fluorescence polarization (FP) based binding assay. (See, I. J. Enyedy et al, J. Med. Chem., 44: […] [2001]). Compounds were dispensed from serially diluted DMSO stock into black 384-well compatible fluorescence polarization plates using an Echo acoustic dispenser. Compound binding to CRBN-DDB 1 was measured by displacement of an established CRBN binding ligand conjugated to an Alexa Fluor® dye (probe). A […] mixture containing 10nM CRBN-DDB1 and 5 nM probe in 50 mM Hepes, pH 7.4, 200 mM NaCl, 1% DMSO, 0.1% BSA and 0.05% o pluronic acid-127 acid was added to wells containing compound and incubated at room temperature for 60 min. Matching control wells excluding CRBN-DDB 1 were used to correct for background fluorescence. Plates were read on an Envision plate reader with appropriate FP filter sets. The corrected S (perpendicular) and P (parallel) values were used to calculate fluorescence polarization (FP) with the following equation: FP=1000*(S−G*P)/(S+G*P).
(§3) The fractional amount of bound probe (FB) to CRBN-DDB 1 as a function of compound concentration was fitted according to Wang; FEBS Letters 360, (1995), 111-114 to obtain fits for parameter offsets and binding constant (KA) of competitor compound.

CRBN-DDB1 (CRBN_DDB1.3) = CRBN-DDB1 (CRBN_DDB1.3) (Homo sapiens, UniProt Q96SW2); experiment: Fluorescence polarization (FP) binding assay, CRBN_DDB1.3 construct; details: 0.05% PA, 0.1% BSA
Procedure: as §1, §2, §3

[1] = indoline binders, read-out: FP CRBN_DDB1.7 0.05% PA, 0.1% BSA ka nM
[2] = indoline binders, read-out: FP CRBN_DDB1.3 0.05% PA, 0.1% BSA ka nM
[3] = benzomorpholine binders, read-out: FP CRBN_DDB1.3 0.05% PA, 0.1% BSA Ka nM
[4] = tetrahydroquinoline binders, read-out: FP CRBN_DDB1.7 0.05% PA, 0.1% BSA ka nM

Chain of CRBN-DDB1 (CRBN_DDB1.3) (Q96SW2 318-426 limits assumed): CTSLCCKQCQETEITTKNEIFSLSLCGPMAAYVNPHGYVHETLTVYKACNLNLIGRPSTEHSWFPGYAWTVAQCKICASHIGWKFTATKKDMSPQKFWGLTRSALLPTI
Chain of CRBN-DDB1 (CRBN_DDB1.7) (Q96SW2 81-442 limits assumed): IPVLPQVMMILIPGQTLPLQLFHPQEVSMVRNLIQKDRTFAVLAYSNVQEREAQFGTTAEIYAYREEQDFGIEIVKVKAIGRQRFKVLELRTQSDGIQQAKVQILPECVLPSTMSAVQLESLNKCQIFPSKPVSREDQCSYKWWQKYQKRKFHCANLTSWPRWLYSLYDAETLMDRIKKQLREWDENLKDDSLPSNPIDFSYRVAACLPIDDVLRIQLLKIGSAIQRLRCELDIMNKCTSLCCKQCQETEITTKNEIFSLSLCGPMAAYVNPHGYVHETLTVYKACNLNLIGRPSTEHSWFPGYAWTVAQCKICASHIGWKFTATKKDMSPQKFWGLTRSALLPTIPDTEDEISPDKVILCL

## CN(C(=O)OC(C)(C)C)C1CCN(c2cccc3c2CCN3C2CCC(=O)NC2=O)CC1 (racemic) [Compound 34-5, tert-butyl (1-(1-(2,6-dioxopiperidin-3-yl)indolin-4-yl)piperidin-4-yl)(methyl)carbamate]
CRBN-DDB1 (CRBN_DDB1.7); [1]
  Kd: < 100000 nM
CRBN-DDB1 (CRBN_DDB1.3); [2]
  Kd: < 100000 nM

## CC(C)(C)OC(=O)N1CCC(c2cccc3c2CCN3[C@@H]2CCC(=O)NC2=O)CC1 (single isomer, unassigned) [Compound 41-4]
CRBN-DDB1 (CRBN_DDB1.7); [1]
  Kd: < 100000 nM

## CC(C)(C)OC(=O)N1CCC(c2cccc3c2CCN3[C@H]2CCC(=O)NC2=O)CC1 (single isomer, unassigned) [Compound 41-5]
CRBN-DDB1 (CRBN_DDB1.7); [1]
  Kd: < 1000 nM

## O=C1CC[C@H](N2CCc3c(N4CCC(CCO)CC4)cccc32)C(=O)N1 (single isomer, unassigned) [Compound 42-5]
CRBN-DDB1 (CRBN_DDB1.7); [1]
  Kd: < 100000 nM
CRBN-DDB1 (CRBN_DDB1.3); [2]
  Kd: < 100000 nM

## O=C1CC[C@@H](N2CCc3c(N4CCC(CCO)CC4)cccc32)C(=O)N1 (single isomer, unassigned) [Compound 42-6]
CRBN-DDB1 (CRBN_DDB1.7); [1]
  Kd: < 1000 nM
CRBN-DDB1 (CRBN_DDB1.3); [2]
  Kd: < 1000 nM

## O=C1CC[C@@H](N2CCc3c(N4CCC(O)CC4)cccc32)C(=O)N1 (single isomer, unassigned) [Compound 43-4]
CRBN-DDB1 (CRBN_DDB1.7); [1]
  Kd: < 1000 nM

## O=C1CC[C@H](N2CCc3c(N4CCC(O)CC4)cccc32)C(=O)N1 (single isomer, unassigned) [Compound 43-5]
CRBN-DDB1 (CRBN_DDB1.7); [1]
  Kd: < 100000 nM

## CN(C(=O)OC(C)(C)C)C1CCN(c2c(F)ccc3c2CCN3[C@H]2CCC(=O)NC2=O)CC1 (single isomer, unassigned) [Compound 44-8]
CRBN-DDB1 (CRBN_DDB1.7); [1]
  Kd: < 100000 nM

## CN(C(=O)OC(C)(C)C)C1CCN(c2c(F)ccc3c2CCN3[C@@H]2CCC(=O)NC2=O)CC1 (single isomer, unassigned) [Compound 44-9]
CRBN-DDB1 (CRBN_DDB1.7); [1]
  Kd: < 100000 nM

## O=C1CC[C@H](N2CCc3c(N4CCC5(CC4)OCCO5)cccc32)C(=O)N1 (single isomer, unassigned) [Compound 45-3]
CRBN-DDB1 (CRBN_DDB1.7); [1]
  Kd: < 100000 nM
CRBN-DDB1 (CRBN_DDB1.3); [2]
  Kd: < 1000 nM

## O=C1CC[C@@H](N2CCc3c(N4CCC5(CC4)OCCO5)cccc32)C(=O)N1 (single isomer, unassigned) [Compound 45-4]
CRBN-DDB1 (CRBN_DDB1.7); [1]
  Kd: < 1000 nM
CRBN-DDB1 (CRBN_DDB1.3); [2]
  Kd: < 100000 nM

## CN(C(=O)OC(C)(C)C)[C@H]1CC[C@H](c2c(F)ccc3c2CCN3C2CCC(=O)NC2=O)CC1 (single isomer, unassigned) [Compound 46-9a, tert-butyl ((1r,4r)-4-(1-(2,6-dioxopiperidin-3-yl)-5-fluoroindolin-4-yl)cyclohexyl)(methyl)carbamate]
CRBN-DDB1 (CRBN_DDB1.7); [1]
  Kd: < 100000 nM
CRBN-DDB1 (CRBN_DDB1.3); [2]
  Kd: < 100000 nM

## CN(C(=O)OC(C)(C)C)[C@H]1CC[C@@H](c2c(F)ccc3c2CCN3C2CCC(=O)NC2=O)CC1 (single isomer, unassigned) [Compound 46-9b, tert-butyl ((1s,4s)-4-(1-(2,6-dioxopiperidin-3-yl)-5-fluoroindolin-4-yl)cyclohexyl)(methyl)carbamate]
CRBN-DDB1 (CRBN_DDB1.7); [1]
  Kd: < 100000 nM
CRBN-DDB1 (CRBN_DDB1.3); [2]
  Kd: < 100000 nM

## CC(C)(C)OC(=O)N1CCC(c2ccc3c(c2F)CCN3[C@H]2CCC(=O)NC2=O)CC1 (single isomer, unassigned) [Compound 47-6]
CRBN-DDB1 (CRBN_DDB1.7); [1]
  Kd: < 100000 nM
CRBN-DDB1 (CRBN_DDB1.3); [2]
  Kd: < 100000 nM

## CC(C)(C)OC(=O)N1CCC(c2ccc3c(c2F)CCN3[C@@H]2CCC(=O)NC2=O)CC1 (single isomer, unassigned) [Compound 47-7]
CRBN-DDB1 (CRBN_DDB1.7); [1]
  Kd: < 100000 nM
CRBN-DDB1 (CRBN_DDB1.3); [2]
  Kd: < 100000 nM

## CC(C)(C)OC(=O)N1CCC(c2c(F)ccc3c2CCN3[C@H]2CCC(=O)NC2=O)CC1 (single isomer, unassigned) [Compound 49-6]
CRBN-DDB1 (CRBN_DDB1.7); [1]
  Kd: < 100000 nM
CRBN-DDB1 (CRBN_DDB1.3); [2]
  Kd: < 100000 nM

## O=C1CCN(c2cccc3c2OCCN3C2CCC(=O)NC2=O)CC1 (stereo not drawn) [Compound 6-12, 3-(8-(4-oxopiperidin-1-yl)-2,3-dihydro-4H-benzo[b][1,4]oxazin-4-yl)piperidine-2,6-dione]
CRBN-DDB1 (CRBN_DDB1.3); [3]
  Kd: ≤ 100000 nM

## O=C1CCC(c2ccnc3c2OCCN3C2CCC(=O)NC2=O)CC1 (stereo not drawn) [Compound 8-10, 3-(8-(4-oxocyclohexyl)-2,3-dihydro-4H-pyrido[3,2-b][1,4]oxazin-4-yl)piperidine-2,6-dione]
CRBN-DDB1 (CRBN_DDB1.3); [3]
  Kd: ≤ 100000 nM

## O=C1CCC(N2CCOc3c(N4CCNCC4)cccc32)C(=O)N1 (stereo not drawn) [Compound 10-10, 3-(8-(piperazin-1-yl)-2H-benzo[b][1,4]oxazin-4(3H)-yl)piperidine-2,6-dione]
CRBN-DDB1 (CRBN_DDB1.3); [3]
  Kd: ≤ 100000 nM

## O=C1CCC(N2CCOc3c([C@H]4CCCNC4)cccc32)C(=O)N1 (stereo partly drawn) [Compound 13-8, 3-[8-[(3R)-3-piperidyl]-2,3-dihydro-1,4-benzoxazin-4-yl]piperidine-2,6-dione]
CRBN-DDB1 (CRBN_DDB1.3); [3]
  Kd: ≤ 100000 nM

## O=C1CCC(N2CCOc3c([C@@H]4CCCNC4)cccc32)C(=O)N1 (stereo partly drawn) [Compound 13-11, 3-[8-[(3S)-3-piperidyl]-2,3-dihydro-1,4-benzoxazin-4-yl]piperidine-2,6-dione]
CRBN-DDB1 (CRBN_DDB1.3); [3]
  Kd: ≤ 100000 nM

## O=C1CCC(N2CCOc3c([C@@H]4CCNC4)cccc32)C(=O)N1 (stereo partly drawn) [Compound 14-7, 3-(8-((S)-pyrrolidin-3-yl)-2H-benzo[b][1,4]oxazin-4(3H)-yl)piperidine-2,6-dione]
CRBN-DDB1 (CRBN_DDB1.3); [3]
  Kd: ≤ 100000 nM

## CNC1CCN(c2cccc3c2O[C@H](C)CN3C2CCC(=O)NC2=O)CC1 (stereo partly drawn) [Compound 18-10, 3-[(2R)-2-methyl-8-[4-(methylamino)-1-piperidyl]-2,3-dihydro-1,4-benzoxazin-4-yl]piperidine-2,6-dione]
CRBN-DDB1 (CRBN_DDB1.3); [3]
  Kd: ≤ 100000 nM

## CNC1CCN(c2cccc3c2O[C@@H](C)CN3C2CCC(=O)NC2=O)CC1 (stereo partly drawn) [Compound 18-13, 3-[(2S)-2-methyl-8-[4-(methylamino)-1-piperidyl]-2,3-dihydro-1,4-benzoxazin-4-yl]piperidine-2,6-dione]
CRBN-DDB1 (CRBN_DDB1.3); [3]
  Kd: ≤ 100000 nM

## O=C1CCC(N2CCOc3c(C4CCC5(CCNCC5)CC4)cccc32)C(=O)N1 (stereo not drawn) [Compound 20-7, 3-[8-(3-azaspiro[5.5]undecan-9-yl)-2,3-dihydro-1,4-benzoxazin-4-yl]piperidine-2,6-dione]
CRBN-DDB1 (CRBN_DDB1.3); [3]
  Kd: ≤ 100000 nM

## O=C1CCC(N2CCOc3c(N4CCC(O)(C(=O)O)CC4)cccc32)C(=O)N1 (stereo not drawn) [Compound 27-8, 1-[4-(2,6-dioxo-3-piperidyl)-2,3-dihydro-1,4-benzoxazin-8-yl]-4-hydroxy-piperidine-4-carboxylic acid]
CRBN-DDB1 (CRBN_DDB1.3); [3]
  Kd: ≤ 100000 nM

## O=C(O)CN1CCC(c2cccc3c2OCC(=O)N3C2CCC(=O)NC2=O)CC1 (stereo not drawn) [Compound 29-5, 2-(4-(4-(2,6-dioxopiperidin-3-yl)-3-oxo-3,4-dihydro-2H-benzo[b][1,4]oxazin-8-yl)piperidin-1-yl)acetic acid]
CRBN-DDB1 (CRBN_DDB1.3); [3]
  Kd: ≤ 100000 nM

## O=C1CCC(N2C(=O)COc3c(Br)cccc32)C(=O)N1 (stereo not drawn) [Compound 33-5, 3-(8-bromo-3-oxo-1,4-benzoxazin-4-yl)piperidine-2,6-dione]
CRBN-DDB1 (CRBN_DDB1.7); benzomorpholine binders, read-out: FP CRBN_DDB1.7 0.05% PA, 0.1% BSA Ka nM
  Kd: ≤ 100000 nM

## O=C1CCC(N2CCc3c(N4CCNCC4)cccc32)C(=O)N1 (stereo not drawn) [Compound 37-4, 3-(4-piperazin-1-ylindolin-1-yl)piperidine-2,6-dione]
CRBN-DDB1 (CRBN_DDB1.7); [1]
  Kd: < 100000 nM

## O=C1CCC(N2CCc3c(N4CCC(C(F)(F)CO)CC4)cccc32)C(=O)N1 (stereo not drawn) [Compound 51-12, 3-[4-[4-(1,1-difluoro-2-hydroxy-ethyl)-1-piperidyl]indolin-1-yl]piperidine-2,6-dione]
CRBN-DDB1 (CRBN_DDB1.3); [2]
  Kd: < 100000 nM

## CC(C)(C)OC(=O)N1CCC2(CC1)Cc1ccccc1N(C1CCC(=O)NC1=O)C2 (stereo not drawn) [Compound 64-7, tert-butyl 1-(2,6-dioxo-3-piperidyl)spiro[2,4-dihydroquinoline-3,4′-piperidine]-1′-carboxylate]
CRBN-DDB1 (CRBN_DDB1.7); [4]
  Kd: < 100000 nM

## O=C1CCC(N2CCCc3c(N4CCC(O)CC4)cccc32)C(=O)N1 (stereo not drawn) [Compound 65-7, 3-[5-(4-hydroxy-1-piperidyl)-3,4-dihydro-2H-quinolin-1-yl]piperidine-2,6-dione]
CRBN-DDB1 (CRBN_DDB1.7); [4]
  Kd: < 100000 nM
